Experimental data from article PMC6826928, “A New Natural Antioxidant Biomaterial from Cinnamomum osmophloeum Kanehira Leaves Represses Melanogenesis and Protects against DNA Damage” (Antioxidants, 2019).

System: T1, mushroom tyrosinase
T1 construct: gene PPO3; commercial native preparation from Merck; likely isoenzyme mixture
Experiment: absorbance at […] nm, Lineweaver–Burk plot
Assay type: biochemical
Settings: no inhibitor, 0.2 M sodium phosphate pH 6.8, 25 °C

| Km (diphenolase activity) | Km (monophenolase activity) | Structure (SMILES) |
| --- | --- | --- |
| 0.511 mg/mL | – | N[C@@H](Cc1ccc(O)c(O)c1)C(=O)O [L-DOPA, L-3,4-dihydroxyphenylalanine] |
| – | 0.534 mg/mL | N[C@@H](Cc1ccc(O)cc1)C(=O)O [L-tyrosine] |
